Where two headings read alike, the source gives them in different places.
What was measured:
[1] = system: Drosophila flies, premature aging strain (sod1[n1] mutants), male; details: vs control medium
Experimental: Mutants of adult Drosophila flies (male) containing Cu/Zn-SOD with reduced activity due to amino acid substitution (sod1[n1]) were bred in a plastic tube having a diameter of 25 mm, and fed with a simple medium (instant medium) for Drosophila that contains D-proline (D-Pro) at a concentration of 20, 60, 200, or 400 μg/ml, or L-proline (L-Pro) at a concentration of 400 μg/ml, followed by measuring the life span of the flies. […] For the control, a simple medium to which no D-Pro or L-Pro was added was used.
(§1) Mutants of adult Drosophila flies (male) containing Cu/Zn-SOD with reduced activity due to amino acid substitution (sod1[n1]) were bred in a plastic tube having a diameter of 25 mm, and fed with a simple medium (instant medium) for Drosophila that contains D-proline (D-Pro) at a concentration of 400 μg/ml, or D-aspartic acid (D-Asp) at a concentration of 60, 200, or 400 μg/ml, followed by measuring the life span of the flies. […] For the control, a simple medium to which no D-Pro or D-Asp was added was used.
as §1, with “D-hydroxyproline (D-HP)” for “D-aspartic acid (D-Asp)”, “D-HP” for “D-Asp”

[2] = system: spleen-derived mononuclear cells (T cells with senescence marker); details: 0.2 mg/ml in water, free intake, Day 495; compared to control group or L-proline group
Experimental: (§2) After euthanasia on Day 495, the spleen was removed and ground through a 0.45-μM strainer to prepare a suspension of spleen-derived cells (FIG. 4). After centrifugation at 1000 g for 5 minutes, the supernatant was removed by suction. Thereafter, 2 ml of ammonium chloride hemolytic agent (distilled water containing 8.99 mg/ml of NH4Cl, 1 mg/ml of KHCO3, and 37 μg/ml of EDTA4Na) was added to the cell pellets, followed by suspension. The resulting product was then allowed to stand at room temperature for 2 minutes. Subsequently, 10 ml of RPMI 1640 medium with 10% FBS was added thereto, the mixture was centrifuged at 1000 g for 5 minutes, and the supernatant was removed by suction. Then, 5 ml of RPMI 1640 medium with 10% FBS was added thereto to prepare a cell suspension (spleen-derived mononuclear cells).
After placing 1×10^6 spleen-derived mononuclear cells of Example 4 into a 1.5-ml Eppendorf tube, centrifugation was performed at 900 g for 5 minutes. Then, the supernatant was removed by suction, and 50 μl of FACS buffer (PBS(−) in which 0.5% BSA, 0.01% NaNO, and 1 mM EDTA were dissolved) was added thereto. Thereafter, incubation was performed on ice for 20 minutes with an FITC-labeled mouse anti-CD27 antibody (NOVUS; NPB-1-44021) and a PE-labeled mouse anti-CD62L antibody (ABGENT; ATB10190). […]

[3] = system: Menin gene and Bach2 gene mRNA; details: 0.2 mg/ml in water, free intake, Day 495; compared to control group or L-proline group
Experimental: as §2
Total RNA was extracted from 1×10^5 spleen-derived mononuclear cells of Example 4 using an RNeasy Mini Kit, produced by Qiagen. […] The mRNA levels of the Menin gene and the Bach2 gene were quantified as a ratio relative to the β-actin gene mRNA level, and calculated taking the value of the spleen-derived mononuclear cells of the control group as 1.

[4] = mixed with feed at 60, 200 or 400 μg/ml

Row | Compound | life span of aging-promoting adult Drosophila flies ([1]; mixed with feed at 400 μg/ml) | life span of aging-promoting adult Drosophila flies [1, 4] | life span of aging-promoting adult Drosophila flies ([1]; mixed with feed at 20, 60, 200 or 400 μg/ml) | number of T cells with a senescence marker of CD62-negative or CD27-negative [2] | mRNA expression of the Bach2 gene (ratio to β-actin, control = 1) [3] | mRNA expression of the Menin gene (ratio to β-actin, control = 1) [3]
1 | N[C@H](CC(=O)O)C(=O)O [D-aspartic acid] | extends the life span | extended the life span of Drosophila flies in a concentration-dependent manner |  |  |  | 
2 | O=C(O)[C@@H]1CCCN1 [L-proline, reference compound] | no effect |  |  |  |  | 
3 | O=C(O)[C@H]1CCCN1 [D-proline] | significantly higher effect |  | dose-dependently extends the life span | significantly reduced number | higher mRNA expression | higher mRNA expression
4 | O=C(O)[C@H]1C[C@H](O)CN1 [D-hydroxyproline] | extends the life span | extended the life span of Drosophila flies in a concentration-dependent manner |  |  |  | 
